Measurements reported in patent US20110288032A1, “ENZASTAURIN FOR THE TREATMENT OF CANCER” (ELI LILLY AND COMPANY, priority 2008, published 2011).

How the values were obtained:
Assay type in all cases: cell-based, human
HCT116 cells = assay: siRNA sensitization of Enzastaurin drug response, CellTiter Glo cell viability; settings: for IC50: Homo sapiens, HCT-116, 72 h, 72 h Enzastaurin
Description: HCT116 cells are obtained from American Tissue Culture Collection, ATCC (Rockville, Md., USA) and cultured in McCoy's 5A medium supplemented with 2 mM L-glutamine and 10% fetal bovine serum (FBS), in a humidified 37° C. incubator with 5% CO2. Plates (384-well) are pre-printed using 2 siRNAs per target in the Druggable Genome v2 Library (Qiagen) such that each well contains 13 nM of an individual siRNA duplex. High throughput reverse transfections are performed by adding transfection agent Lipofectamine 2000 (Invitrogen) and 1500 cells diluted in McCoy's 5A medium supplemented with 2 mM L-glutamine and 2% FBS into each well following a standard reverse transfection protocol. Twenty-four hours post transfection, each assay plate is treated with or without 5 concentrations (0-10 μM) of Enzastaurin in 1% DMSO. Seventy-two hours later, cell viability is measured using chemiluminescence based CellTiter Glo (Promega) assay readout, according to manufacturer's recommendations. UBB siRNA (Qiagen) is the positive cell killing control and All Star Non-silencing (NS-AS) or green fluorescent protein (GFP) is the negative control. Raw signal values are normalized to untreated control wells to compare across plates. These are fit to a 4-parameter logistical model to determine IC50 values. A ‘shift’ in IC50 with respect to the negative control (described above) is calculated as: (IC50 target−IC50 control) divided by IC50 control.

HCT116 (HDAC 2 w.t) = assay: Enzastaurin drug dose response, CellTiter Glo cell viability; settings: HCT116 cells
Description: (§1) The human colon cancer cell line, HCT116 (HDAC 2 w.t), and RKO (HDAC 2+/−), a cell line containing a nonsense mutation resulting in null protein expression of HDAC2 relative to HCT116, are obtained from American Tissue Culture Collection, ATCC (Rockville, Md., USA) and cultured in the ATCC recommended growth medium supplemented with 2 mM L-glutamine and 10% FBS, in a humidified 37° C. incubator with 5% CO2. Drug dose response experiments are performed by seeding 1000-2000 cells diluted in McCoy's 5A medium containing 25 mM N-2-hydroxyethylpiperazine-N′-2-ethanesulfonic acid (HEPES), 2 mM L-glutamine and 2% fetal bovine serum (FBS) followed by treatment with or without serial dilutions of Enzastaurin (0-100 μM) in 1% DMSO. Seventy-two or ninety-six hours later, cell viability is measured using chemiluminescence based CellTiter Glo (Promega) assay readout, according to manufacturer's recommendations. Raw signal values are normalized to untreated control and analyzed by non-linear curve fitting in GraphPad Prism (La Jolla, Calif., USA).

RKO (HDAC 2+/−) = assay: as above; settings: RKO cells
Description: as §1

SMILES: Cn1cc(C2=C(c3cn(C4CCN(Cc5ccccn5)CC4)c4ccccc34)C(=O)NC2=O)c2ccccc21 [Enzastaurin, 3-(1-methyl-1H-indol-3-yl)-4-[1-[1-(pyridin-2-ylmethyl)piperidin-4-yl]-1H-indol-3-yl]-1H-pyrrole-2,5-dione]
- shift in IC50 values relative to negative control (HCT116 cells; HCT116, three siRNAs that target HDAC2): > 2 fold
- cell killing in high content images (HCT116 cells; HCT116 treated with Enzastaurin and HDAC2 siRNA relative to negative controls and either condition alone, data not shown): higher degree of cell killing
- IC50 (HCT116 cells; HCT116, HDAC2 siRNA: None (negative control)): 3690 nM
- IC50 (HCT116 cells; HCT116 transfected with HDAC2 siRNA SEQ ID NO: 1): 1360 nM
- IC50 (HCT116 cells; HCT116 transfected with HDAC2 siRNA SEQ ID NO: 2): 1680 nM
- IC50 (HCT116 cells; HCT116 transfected with HDAC2 siRNA SEQ ID NO: 3): 2010 nM
- maximum killing effect (HCT116 (HDAC 2 w.t)): 50-60%
- IC50 (HCT116 (HDAC 2 w.t); Homo sapiens, HCT-116, 72 or 96 h): 8340 nM
- IC50 (RKO (HDAC 2+/−); Homo sapiens, 72 or 96 h): 3560 nM
- maximum killing effect (RKO (HDAC 2+/−)): 95-100%
